Earlier results as cited in US20230293063A1 (SOMNUS SCIENTIFIC LTD, priority 2020, published 2023).

Q: For `CC(C)c1cccc(C(C)C)c1O` [propofol, 2,6-diisopropylphenol], which “fraction metabolized in the liver” value (Smits, Annaert and Allegaert, 2017) is on record?
A: The value was 90%.

Q: And the “free fraction of the total drug concentration” value (blood)?
A: The value was 2%.
